As usually defined, the pEC50 is −log10 of the EC50, conventionally taken in molar units.

Each structure is given as a SMILES string. pEC50: −log10 of the molar value.

The subject of the test is recombinant NL4-3 virus (Renilla luciferase in nef, Gag P373S). In words: HIV cell culture assay (luciferase reporter virus in MT-2 cells). The class given is cell-based. The conditions noted are these: NL43. The procedure: HIV cell culture assay—MT-2 cells and 293T cells were obtained from the NIH AIDS Research and Reference Reagent Program. MT-2 cells were propagated in RPMI 1640 media supplemented with 10% heat inactivated fetal bovine serum, […]. The 293T cells were propagated in DMEM media supplemented with 10% heat inactivated fetal bovine serum (FBS), 100 units/ml penicillin G and 100 μg/ml streptomycin. The proviral DNA clone of NL4-3 was obtained from the NIH AIDS Research and Reference Reagent Program. A recombinant NL4-3 virus, in which a section of the nef gene from NL4-3 was replaced with the Renilla luciferase gene, was used as a reference virus. In addition, residue Gag P373 was converted to P373S. Briefly, the recombinant virus was prepared by transfection of the altered proviral clone of NL4-3. Transfections were performed in 293T cells using LipofectAMINE PLUS from Invitrogen (Carlsbad, Calif.), according to manufacturer's instruction. The virus was titered in MT-2 cells using luciferase enzyme activity as a marker. Luciferase was quantitated using the Dual Luciferase kit from Promega (Madison, Wis.), with modifications to the manufacturer's protocol. The diluted Passive Lysis solution was pre-mixed with the re-suspended Luciferase Assay Reagent and the re-suspended Stop & Glo Substrate (2:1:1 ratio). Fifty (50) μL of the mixture was added to each aspirated well on assay plates and luciferase activity was measured immediately on a Wallac TriLux (Perkin-Elmer). Antiviral activities of inhibitors toward the recombinant virus were quantified by measuring luciferase activity in cells infected for 4-5 days with NLRluc recombinants in the presence serial dilutions of the inhibitor. Table 1 is the key for the data in Table 2.
A general note: In a reporter assay the amount or activity of a reporter protein is the signal.
`C=C(C)[C@@H]1CC[C@]2(CO)CC[C@]3(C)[C@H](CC[C@@H]4[C@@]5(C)CC=C(c6ccc(S(N)(=O)=O)cc6)C(C)(C)[C@@H]5CC[C@]43C)[C@@H]12` [Example 5j, 4-((1R,3aS,5aR,5bR,7aR,11aS,11bR,13aR,13bR)-3a-(hydroxymethyl)-5a,5b,8,8,11a-pentamethyl-1-(prop-1-en-2-yl)-2,3,3a,4,5,5a,5b,6,7,7a,8,11,11a,11b,12,13,13a,13b-octadecahydro-1H-cyclopenta[a]chrysen-9-yl)benzenesulfonamide]: the pEC50 is greater than 6.00.
For `C=C(C)[C@@H]1CC[C@]2(CO)CC[C@]3(C)[C@H](CC[C@@H]4[C@@]5(C)CC=C(c6ccc(C(=O)O)cc6F)C(C)(C)[C@@H]5CC[C@]43C)[C@@H]12` [Example 5k, 3-fluoro-4-((1R,3aS,5aR,5bR,7aR,11aS,11bR,13aR,13bR)-3a-(hydroxymethyl)-5a,5b,8,8,11a-pentamethyl-1-(prop-1-en-2-yl)-2,3,3a,4,5,5a,5b,6,7,7a,8,11,11a,11b,12,13,13a,13b-octadecahydro-1H-cyclopenta[a]chrysen-9-yl)benzoic acid] the value was greater than 6.00; for `C=C(C)[C@@H]1CC[C@]2(CO)CC[C@]3(C)[C@H](CC[C@@H]4[C@@]5(C)CC=C(c6ccc(-c7nn[nH]n7)cc6)C(C)(C)[C@@H]5CC[C@]43C)[C@@H]12` [Example 5l, ((1R,3aS,5aR,5bR,7aR,11aS,11bR,13aR,13bR)-9-(4-(2H-tetrazol-5-yl)phenyl)-5a,5b,8,8,11a-pentamethyl-1-(prop-1-en-2-yl)-2,3,3a,4,5,5a,5b,6,7,7a,8,11,11a,11b,12,13,13a,13b-octadecahydro-1H-cyclopenta[a]chrysen-3a-yl)methanol], less than 6.00.
For `C=C(C)[C@@H]1CC[C@]2(CO)CC[C@]3(C)[C@H](CC[C@@H]4[C@@]5(C)CC=C(c6ccc(C(=O)O)c(F)c6)C(C)(C)[C@@H]5CC[C@]43C)[C@@H]12` [Example 5m, 2-fluoro-4-((1R,3aS,5aR,5bR,7aR,11aS,11bR,13aR,13bR)-3a-(hydroxymethyl)-5a,5b,8,8,11a-pentamethyl-1-(prop-1-en-2-yl)-2,3,3a,4,5,5a,5b,6,7,7a,8,11,11a,11b,12,13,13a,13b-octadecahydro-1H-cyclopenta[a]chrysen-9-yl)benzoic acid] the value was greater than 6.00; for `C=C(C)[C@@H]1CC[C@]2(CO)CC[C@]3(C)[C@H](CC[C@@H]4[C@@]5(C)CC=C(c6ccc(C(=O)O)cc6Cl)C(C)(C)[C@@H]5CC[C@]43C)[C@@H]12` [Example 5n, 3-chloro-4-((1R,3aS,5aR,5bR,7aR,11aS,11bR,13aR,13bR)-3a-(hydroxymethyl)-5a,5b,8,8,11a-pentamethyl-1-(prop-1-en-2-yl)-2,3,3a,4,5,5a,5b,6,7,7a,8,11,11a,11b,12,13,13a,13b-octadecahydro-1H-cyclopenta[a]chrysen-9-yl)benzoic acid], greater than 6.00; for `C=C(C)[C@@H]1CC[C@]2(CO)CC[C@]3(C)[C@H](CC[C@@H]4[C@@]5(C)CC=C(c6ccc(C(=O)O)c(OC)c6)C(C)(C)[C@@H]5CC[C@]43C)[C@@H]12` [Example 5o, 4-((1R,3aS,5aR,5bR,7aR,11aS,11bR,13aR,13bR)-3a-(hydroxymethyl)-5a,5b,8,8,11a-pentamethyl-1-(prop-1-en-2-yl)-2,3,3a,4,5,5a,5b,6,7,7a,8,11,11a,11b,12,13,13a,13b-octadecahydro-1H-cyclopenta[a]chrysen-9-yl)-2-methoxybenzoic acid], 6.30.

Source of the values: patent publication US8754068B2, “Modified C-3 betulinic acid derivatives as HIV maturation inhibitors” (priority 2010, dated 2014).
